Results published in PMC11992128, “Inhibition of Rho GEFs attenuates pulmonary fibrosis through suppressing myofibroblast activation and reprogramming profibrotic macrophages” (Cell Death & Disease, 2025).

What was measured:
[1] = biological target: T1, DH/PH domain of LARG (Leukemia-associated RhoGEF); ARHGEF12(765-1138aa) (Homo sapiens, UniProt Q9NZN5); assay: CETSA, NIH/3T3 expressing the GST-tagged domain, Western blot; format: cell-based; settings: 75 μM GL-V9, 3 h
T1 construct: DH/PH domain; GST-ARHGEF12(765-1138aa) by lentivirus in NIH/3T3 for the cell tests
T1 sequence (Q9NZN5 765-1138): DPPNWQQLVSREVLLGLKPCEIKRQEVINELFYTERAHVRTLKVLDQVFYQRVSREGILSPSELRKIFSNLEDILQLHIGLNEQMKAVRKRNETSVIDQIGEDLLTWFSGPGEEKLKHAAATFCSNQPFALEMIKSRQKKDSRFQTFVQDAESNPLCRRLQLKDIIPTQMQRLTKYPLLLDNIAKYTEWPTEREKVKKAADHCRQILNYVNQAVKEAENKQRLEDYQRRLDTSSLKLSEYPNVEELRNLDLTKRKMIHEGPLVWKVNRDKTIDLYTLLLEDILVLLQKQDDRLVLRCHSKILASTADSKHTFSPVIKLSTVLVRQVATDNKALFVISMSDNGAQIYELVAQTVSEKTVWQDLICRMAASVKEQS

[2] = biological target: T1, DH/PH domain of LARG (Leukemia-associated RhoGEF); ARHGEF12(765-1138aa); assay: surface plasmon resonance (Biacore S200, CM5 chip, immobilised protein); format: binding

Structure (SMILES): COc1c(OCCCCN2CCCC2)cc(O)c2c(=O)cc(-c3ccccc3)oc12 [GL-V9, 5-hydroxy-8-methoxy-2-phenyl-7-(4-(pyrrolidine-1-yl)butoxy) 4H-chromen-4-one]
- thermal stability [1]: GL-V9 significantly enhanced the thermal stability of the wild-type DH/PH domain
- Kd [2]: 11.8 µM
